Data: ChEMBL document CHEMBL1147514 (Bioorg Med Chem Lett, 2004)

Key:
[1] = molecular target: T1, Neuronal acetylcholine receptor; alpha4/beta2 (Rattus norvegicus, UniProt P09483+P12390); test: Inhibition of [3H]nicotine binding to Nicotinic acetylcholine receptor alpha4-beta2 from rat membranes
Mus musculus [2] = species on record: Mus musculus; test: Antinociceptive activity was tested in the mouse tail-flick test at 32.5 nM; type: functional
[3] = molecular target: T1, Neuronal acetylcholine receptor; alpha4/beta2; test: Binding affinity towards rat Nicotinic acetylcholine receptor alpha4-beta2 expressed in Xenopus oocytes using [3H]epibatidine as radioligand; type: cell-based, Oocyte
[4] = molecular target: Neuronal acetylcholine receptor; alpha2/beta2 (Rattus norvegicus, UniProt P12389+P12390); test: Binding affinity towards rat alpha2-beta2 neuronal nAChR expressed in Xenopus oocytes using [3H]epibatidine as radioligand; type: cell-based, Oocyte
[5] = molecular target: Neuronal acetylcholine receptor; alpha3/beta2 (Rattus norvegicus, UniProt P04757+P12390); test: Binding affinity towards rat Nicotinic acetylcholine receptor alpha3-beta2 expressed in Xenopus oocytes using [3H]epibatidine as radioligand; type: cell-based, Oocyte
Mus musculus [6] = species on record: Mus musculus; test: Antinociceptive activity was tested in the mouse hot plate test; type: functional
Mus musculus [7] = species on record: Mus musculus; test: Antinociceptive activity was tested in the mouse tail-flick test; type: functional
Mus musculus [8] = species on record: Mus musculus; test: Antinociceptive activity was tested in the mouse tail-flick test from ref 15; type: functional
Mus musculus [9] = species on record: Mus musculus; test: Antinociceptive activity was tested in the mouse tail-flick test from ref 17; type: functional
Mus musculus [10] = species on record: Mus musculus; test: Spontaneous activity in mice from ref 15; type: functional
Mus musculus [11] = species on record: Mus musculus; test: Drug discrimination in mice from ref 15
[12] = molecular target: T1, Neuronal acetylcholine receptor; alpha4/beta2; test: Inhibition of [3H]epibatidine binding to Nicotinic acetylcholine receptor alpha4-beta2 from rat membranes
[13] = molecular target: Neuronal acetylcholine receptor; alpha4/beta4 (Rattus norvegicus) (UniProt P09483+P12392); test: Functional potency measured as maximum stimulation at rat Nicotinic acetylcholine receptor alpha4-beta4 expressed in Xenopus oocytes; type: cell-based; conditions: Oocyte
[14] = molecular target: Neuronal acetylcholine receptor; alpha4/beta2 (Rattus norvegicus) (UniProt P09483+P12390); test: Functional potency measured as maximum stimulation at rat Nicotinic acetylcholine receptor alpha4-beta2 expressed in Xenopus oocytes; type: cell-based; conditions: Oocyte
[15] = molecular target: Neuronal acetylcholine receptor; alpha3/beta4 (Rattus norvegicus) (UniProt P04757+P12392); test: Functional potency measured as maximum stimulation at rat Nicotinic acetylcholine receptor alpha3-beta4 expressed in Xenopus oocytes; type: cell-based; conditions: Oocyte
Mus musculus [16] = species on record: Mus musculus; test: Blockage of Antinociceptive activity of nicotine was tested in the mouse hot plate test; type: functional
Mus musculus [17] = species on record: Mus musculus; test: Blockage of Antinociceptive activity of nicotine was tested in the mouse tail flick test; type: functional
Mus musculus [18] = test: Antinociceptive activity was tested in the mouse hot plate test at 15 mg/kg; type: functional
Mus musculus [19] = test: Antinociceptive activity was tested in the mouse tail-flick test at 15 mg/kg; type: functional
[20] = molecular target: Neuronal acetylcholine receptor; alpha2/beta4 (Rattus norvegicus, UniProt P12389+P12392); test: Binding affinity towards rat Nicotinic acetylcholine receptor alpha2-beta4 expressed in Xenopus oocytes using [3H]epibatidine as radioligand; type: cell-based, Oocyte
[21] = molecular target: T2, Neuronal acetylcholine receptor; alpha4/beta4 (Rattus norvegicus, UniProt P09483+P12392); test: Functional potency measured as stimulation at rat Nicotinic acetylcholine receptor alpha4-beta4 expressed in Xenopus oocytes; type: cell-based, Oocyte
[22] = molecular target: T2, Neuronal acetylcholine receptor; alpha4/beta4; test: Binding affinity towards rat Nicotinic acetylcholine receptor alpha4-beta4 expressed in Xenopus oocytes using [3H]epibatidine as radioligand; type: cell-based, Oocyte
[23] = molecular target: T3, Neuronal acetylcholine receptor; alpha3/beta4 (Rattus norvegicus, UniProt P04757+P12392); test: Functional potency measured as stimulation at rat Nicotinic acetylcholine receptor alpha3-beta4 expressed in Xenopus oocytes; type: cell-based, Oocyte
[24] = molecular target: T3, Neuronal acetylcholine receptor; alpha3/beta4; test: Binding affinity towards rat Nicotinic acetylcholine receptor alpha3-beta4 expressed in Xenopus oocytes using [3H]epibatidine as radioligand; type: cell-based, Oocyte
[25] = molecular target: T1, Neuronal acetylcholine receptor; alpha4/beta2; test: Functional potency measured as stimulation at rat Nicotinic acetylcholine receptor alpha4-beta2 expressed in Xenopus oocytes; type: cell-based, Oocyte
[26] = molecular target: Neuronal acetylcholine receptor subunit alpha-7 (Rattus norvegicus, UniProt Q05941); test: Inhibition of [125I]-iodo-MLA binding to Nicotinic acetylcholine receptor alpha-7 from rat brain membranes; type: cell membranes, Membrane
[27] = molecular target: T1, Neuronal acetylcholine receptor; alpha4/beta2; test: [3H](+/-)-epibatidine binding to Nicotinic acetylcholine receptor alpha4-beta2 from rat membranes

T3 sequence (P04757 whole entry): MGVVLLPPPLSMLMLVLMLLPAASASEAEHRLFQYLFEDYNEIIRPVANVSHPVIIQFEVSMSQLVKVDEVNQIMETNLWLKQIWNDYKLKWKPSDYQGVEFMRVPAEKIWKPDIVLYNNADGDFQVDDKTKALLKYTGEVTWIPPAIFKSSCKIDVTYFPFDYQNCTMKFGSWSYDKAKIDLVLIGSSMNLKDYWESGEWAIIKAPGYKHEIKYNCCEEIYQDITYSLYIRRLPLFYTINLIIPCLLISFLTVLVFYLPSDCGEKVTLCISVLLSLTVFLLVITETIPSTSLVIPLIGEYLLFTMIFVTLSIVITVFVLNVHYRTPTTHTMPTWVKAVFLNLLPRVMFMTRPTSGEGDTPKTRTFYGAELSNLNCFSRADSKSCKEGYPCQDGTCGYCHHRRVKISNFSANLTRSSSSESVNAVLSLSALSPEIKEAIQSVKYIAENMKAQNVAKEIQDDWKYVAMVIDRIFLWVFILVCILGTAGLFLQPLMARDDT
T3 sequence (P12392 whole entry): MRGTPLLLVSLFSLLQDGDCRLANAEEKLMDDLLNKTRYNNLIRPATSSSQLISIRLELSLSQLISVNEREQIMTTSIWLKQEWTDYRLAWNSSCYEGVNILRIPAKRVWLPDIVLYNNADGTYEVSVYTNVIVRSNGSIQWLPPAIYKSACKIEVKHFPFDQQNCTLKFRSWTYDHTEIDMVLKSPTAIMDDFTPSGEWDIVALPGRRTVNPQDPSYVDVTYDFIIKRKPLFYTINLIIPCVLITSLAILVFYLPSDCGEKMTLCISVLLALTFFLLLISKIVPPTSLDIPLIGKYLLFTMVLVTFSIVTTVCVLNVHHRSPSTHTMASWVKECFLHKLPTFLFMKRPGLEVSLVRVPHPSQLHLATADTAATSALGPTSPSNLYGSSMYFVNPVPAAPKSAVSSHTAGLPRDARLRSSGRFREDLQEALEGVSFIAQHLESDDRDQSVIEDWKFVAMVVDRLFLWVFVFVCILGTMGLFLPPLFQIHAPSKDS
Chain of Neuronal acetylcholine receptor; alpha3/beta2 (P04757 whole entry): as the sequence (P04757 whole entry) above
Chain of Neuronal acetylcholine receptor; alpha3/beta2 (P12390 whole entry): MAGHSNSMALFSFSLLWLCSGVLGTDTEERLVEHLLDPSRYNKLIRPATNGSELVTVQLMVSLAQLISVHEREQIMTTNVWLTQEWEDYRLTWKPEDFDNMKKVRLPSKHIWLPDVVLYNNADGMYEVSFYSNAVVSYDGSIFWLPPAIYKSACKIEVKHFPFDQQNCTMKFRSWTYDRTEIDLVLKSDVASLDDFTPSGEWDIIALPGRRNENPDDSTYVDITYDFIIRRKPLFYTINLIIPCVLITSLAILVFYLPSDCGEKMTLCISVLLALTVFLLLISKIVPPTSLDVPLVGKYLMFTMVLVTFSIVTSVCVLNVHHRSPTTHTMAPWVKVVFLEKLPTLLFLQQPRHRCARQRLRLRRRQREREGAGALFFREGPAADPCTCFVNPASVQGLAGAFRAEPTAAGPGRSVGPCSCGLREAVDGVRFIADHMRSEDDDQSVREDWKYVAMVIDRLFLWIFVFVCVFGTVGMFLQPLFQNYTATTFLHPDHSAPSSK
Chain of Neuronal acetylcholine receptor; alpha2/beta2 (P12389 whole entry): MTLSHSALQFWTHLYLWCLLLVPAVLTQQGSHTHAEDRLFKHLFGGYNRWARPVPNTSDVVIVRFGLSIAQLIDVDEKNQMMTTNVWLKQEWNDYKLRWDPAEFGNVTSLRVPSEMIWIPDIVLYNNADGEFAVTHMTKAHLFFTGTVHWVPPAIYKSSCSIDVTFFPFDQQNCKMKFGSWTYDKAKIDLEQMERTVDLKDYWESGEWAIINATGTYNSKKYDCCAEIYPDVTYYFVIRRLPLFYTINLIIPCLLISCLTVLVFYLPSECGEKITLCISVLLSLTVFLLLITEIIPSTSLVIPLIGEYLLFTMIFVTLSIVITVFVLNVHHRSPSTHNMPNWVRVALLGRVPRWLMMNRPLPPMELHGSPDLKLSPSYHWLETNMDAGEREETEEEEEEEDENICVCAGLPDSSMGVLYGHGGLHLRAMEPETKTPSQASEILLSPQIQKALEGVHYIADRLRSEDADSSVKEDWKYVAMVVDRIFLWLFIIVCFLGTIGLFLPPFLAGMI
Chain of Neuronal acetylcholine receptor; alpha2/beta2 (P12390 whole entry): as the sequence (P12390 whole entry) above
T1 sequence (P09483 whole entry): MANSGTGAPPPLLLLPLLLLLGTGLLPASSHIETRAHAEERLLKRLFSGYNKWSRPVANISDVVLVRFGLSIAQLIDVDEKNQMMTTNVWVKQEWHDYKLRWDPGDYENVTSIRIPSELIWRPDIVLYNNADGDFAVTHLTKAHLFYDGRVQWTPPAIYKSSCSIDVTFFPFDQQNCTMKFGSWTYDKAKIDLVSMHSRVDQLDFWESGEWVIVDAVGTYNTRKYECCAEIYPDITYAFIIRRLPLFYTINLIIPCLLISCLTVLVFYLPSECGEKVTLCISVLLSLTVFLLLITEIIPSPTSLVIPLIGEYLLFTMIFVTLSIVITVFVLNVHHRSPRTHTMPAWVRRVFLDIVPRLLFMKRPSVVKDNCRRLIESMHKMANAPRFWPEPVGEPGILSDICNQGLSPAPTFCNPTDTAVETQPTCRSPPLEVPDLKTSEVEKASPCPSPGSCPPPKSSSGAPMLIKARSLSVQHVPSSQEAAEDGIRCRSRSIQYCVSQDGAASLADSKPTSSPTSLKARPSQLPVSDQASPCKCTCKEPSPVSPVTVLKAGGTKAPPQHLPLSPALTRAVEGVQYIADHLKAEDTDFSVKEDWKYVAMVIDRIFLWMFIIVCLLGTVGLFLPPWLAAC
T1 sequence (P12390 whole entry): as the sequence (P12390 whole entry) above
T2 sequence (P09483 whole entry): as the sequence (P09483 whole entry) above
T2 sequence (P12392 whole entry): as the sequence (P12392 whole entry) above
Chain of Neuronal acetylcholine receptor; alpha2/beta4 (P12389 whole entry): as the sequence (P12389 whole entry) above
Chain of Neuronal acetylcholine receptor; alpha2/beta4 (P12392 whole entry): as the sequence (P12392 whole entry) above
Chain of Neuronal acetylcholine receptor subunit alpha-7 (Q05941 whole entry): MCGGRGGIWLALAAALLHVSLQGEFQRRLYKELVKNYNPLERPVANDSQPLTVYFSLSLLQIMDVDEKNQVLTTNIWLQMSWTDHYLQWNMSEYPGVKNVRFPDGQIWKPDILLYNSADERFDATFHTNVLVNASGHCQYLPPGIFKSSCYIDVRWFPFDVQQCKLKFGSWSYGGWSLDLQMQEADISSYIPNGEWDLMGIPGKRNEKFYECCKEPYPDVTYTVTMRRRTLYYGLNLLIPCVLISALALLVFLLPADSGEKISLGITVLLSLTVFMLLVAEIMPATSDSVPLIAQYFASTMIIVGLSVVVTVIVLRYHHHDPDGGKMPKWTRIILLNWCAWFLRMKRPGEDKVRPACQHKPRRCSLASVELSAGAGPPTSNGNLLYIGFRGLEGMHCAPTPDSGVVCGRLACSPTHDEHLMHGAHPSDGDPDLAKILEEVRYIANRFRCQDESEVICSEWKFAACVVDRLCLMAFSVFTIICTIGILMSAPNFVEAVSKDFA

CN1[C@@H]2CC[C@H]1[C@H](c1ccc(Cl)nc1)C2
Ki [1]: 0.26 nM

CN(C)c1ccc(C2CC3CCC2N3)cn1 (stereo not drawn)
Activity (Mus musculus [2]): 10% | Ki [3]: > 100 nM | Ki [4]: > 100 nM | Ki [5]: > 100 nM

Clc1ccc([C@H]2C[C@@H]3CC[C@H]2N3)cn1 [(-)-EPIBATIDINE]
ED50 (Mus musculus [6]): 4 µg/kg | ED50 (Mus musculus [7]): 6 µg/kg | ED50 (Mus musculus [8]): 6.1 µg/kg | ED50 (Mus musculus [9]): 9 µg/kg | ED50 (Mus musculus [10]): 1.8 µg/kg | ED50 (Mus musculus [11]): 1 µg/kg

Fc1cc(C2CC3CCC2N3)cnc1Cl (stereo not drawn)
ED50 (Mus musculus [6]): 9 µg/kg | ED50 (Mus musculus [7]): 8 µg/kg | Ki [12]: 0.025 nM

CC(=O)OCC[N+](C)(C)C
Max [13]: 98% | Max [14]: 95% | Max [15]: 100%

Fc1ncc([C@H]2C[C@@H]3CC[C@H]2N3)cc1-c1ccccc1
AD50 (Mus musculus [16]): 700 µg/kg | AD50 (Mus musculus [17]): 80 µg/kg | inhibition in vivo at 15 mg/kg (Mus musculus [18]): 10% | inhibition in vivo at 15 mg/kg (Mus musculus [19]): 5% | Ki [12]: 0.26 nM

Brc1ccc(C2CC3CCC2N3)cn1 (stereo not drawn)
Ki [3]: 0.01 nM | Ki [4]: 0.013 nM | Ki [20]: 0.055 nM | EC50 [21]: 20 nM | Ki [22]: 0.044 nM | Max [13]: 102% | Max [14]: 65% | Ki [5]: 0.004 nM | EC50 [23]: 189 nM | Ki [24]: 0.22 nM | Max [15]: 82% | EC50 [25]: 94 nM

Clc1ccc([C@@H]2C[C@H]3CC[C@@H]2N3)cn1 [(+)-EPIBATIDINE]
ED50 (Mus musculus [8]): 6.6 µg/kg | ED50 (Mus musculus [9]): 7 µg/kg | ED50 (Mus musculus [10]): 1.2 µg/kg | ED50 (Mus musculus [11]): 0.9 µg/kg

Clc1ncc(C2CC3CCC2N3)cc1Br (stereo not drawn)
ED50 (Mus musculus [6]): 20 µg/kg | ED50 (Mus musculus [7]): 30 µg/kg | Ki [26]: 152 nM

[N-]=[N+]=Nc1cc(C2CC3CCC2N3)cnc1Cl (stereo not drawn) [AZIDOEPIBATIDINE]
Ki [12]: 0.027 nM | Ki [26]: 9.7 nM

CCCN1C2CCC1C(c1ccc(Cl)nc1)C2 (single isomer, unassigned; (-))
Ki [1]: 10.8 nM

CCN1C2CCC1C(c1ccc(Cl)nc1)C2 (racemic)
Ki [27]: 13.6 nM

c1cncc(C2CC3CCC2N3)c1 (stereo not drawn) [DESCHLOROEPIBATIDINE]
Ki [3]: 0.0085 nM | Ki [4]: 0.028 nM | Ki [20]: 3.3 nM | EC50 [21]: 982 nM | Ki [22]: 3.2 nM | Max [13]: 147% | Max [14]: 112% | Ki [5]: 0.0031 nM | EC50 [23]: 702 nM | Ki [24]: 11 nM | Max [15]: 61% | EC50 [25]: 3630 nM

CC(=O)N1C2CCC1C(c1ccc(Cl)nc1)C2 (stereo not drawn)
ED50 (Mus musculus [7]): > 1000 µg/kg
